Measurements taken from paper PMC12670160, “A drug-repurposing screen of FDA- and EMA-approved drugs identifies two NF-κB inhibitors active against eumycetoma” (Journal of Antimicrobial Chemotherapy, 2025).
In brackets after ≈: the same amount, converted by molar mass.

Columns and labels:
[1] = test system: M. mycetomatis MM55-infected G. mellonella larvae; test: Therapeutic efficacy in M. mycetomatis-infected G. mellonella larvae (survival, log-rank); type: in vivo, Galleria mellonella
Experimental: (§1) For in vivo experiments, sixth-week instar G. mellonella larvae were purchased from Blue-Lagoon, Maassluis, The Netherlands. The larvae were raised and kept in the dark at room temperature. Larvae without any discoloration and weighing around 500 mg were selected for experiments.
The wet weight was determined and 10 mL of PBS per gram of mycelia was added. The suspension was then sonicated for 2 min to achieve a particle size of 10 µm. The fungal suspension (4 mg/40 µL) was injected into the last left pro-leg of a healthy G. mellonella larva with an insulin 29G U-100 needle to reach a final inoculum of 4 mg/larva. Larvae were placed in Petri dishes containing Whatman paper in a 37°C incubator.
A control group was also included in which M. mycetomatis-infected larvae were treated with PBS or with 1 mg/kg amphotericin B (Fungizone, Bristol Myers Squibb, Utrecht, The Netherlands). […] The treatment was repeated at 28 h post infection and 52 h post infection via different prolegs. The infection was monitored for 10 days.
To compare the survival rates between PBS treatment control and the different experimental groups a log-rank test was performed. All data were processed and performed in GraphPad Prism 10.

M. mycetomatis strain P1 = test: IC50 and MIC determination, CellTiter-Glo, strain P1; type: cell-based, Madurella mycetomatis
[2] = test system: healthy uninfected G. mellonella larvae; settings: for Toxicity in G. mellonella larvae at 20 µM: in vivo; for Toxicity in G. mellonella larvae at concentrations as low as 0.5 µM: tested at 20, 10, 5, 1 and 0.5 µM, 10 day observation
Experimental: as §1
To determine the toxicity, 15 healthy uninfected larvae were injected with 20 µL of 20 µM compound as previously described.[16] […] As a control, a separate group of larvae were injected with 20 µL of PBS. Larvae were housed in Petri dishes with Whatman paper at 37°C in the dark. Survival was monitored for 10 days.

M. mycetomatis [3] = test: In vitro susceptibility, averages over M. mycetomatis isolates (average metabolic activity at 2 µM, mean MIC); type: cell-based; settings: Madurella mycetomatis, 96 h, 4 days at 37°C, CellTiter-Glo, average of 3 isolates, 20% or below = inhibition
Experimental: M. mycetomatis isolate MM55 was used to screen the Oncode library. This strain was kindly provided by Prof. […] The three M. mycetomatis isolates were identified by ITS sequencing and maintained at −80°C at Erasmus MC. Prior to in vitro screening, isolates were cultured on Sabouraud agar plates (BD, Erembodegem, Belgium) at 37°C.
The Oncode Drug Repurposing library was based on the drug repurposing library from the Drug Repurposing Hub of the Broad Institute and recreated by the Oncode institute.[13] […] Each well of the 384-well plates contained 0.6 µL of a 200 µM stock concentration of compound, resulting in a final concentration of 2 µM when the fungus was added. […] Furthermore, this concentration could also be reached in the G. mellonella larvae.[8],[11] The prepared 384-well plates were transferred on dry ice to the Erasmus MC and stored at −80°C until they were screened.
Each plate also contained a growth control (60 µL of M. mycetomatis hyphal suspension, plus 0.6 µL of DMSO) and a negative control (60 µL of culture medium, plus 0.6 µL of DMSO). Plates were then incubated for 4 days at 37°C, after which 30 µL of CellTiter-Glo 3D Cell Viability reagent was added to every well.[19] After 25 min of incubation at room temperature, the luminescence was measured with a CytoFluor Series 4000 luminometer (PerSeptive Biosystems, Framingham, MA, USA). To determine the metabolic activity, the following formula was used:
Percentagemetabolicactivity=(Absorbancetestluminensence−AbsorbanceNCluminensence/AbsorbanceGCluminensence−AbsorbanceNCluminensence)×100
where, GC is growth control and NC is negative control. The luminescence measured for the GC is considered as 100% metabolic activity. The luminescence for the NC is considered as 0% metabolic activity.

M. mycetomatis strain I1 = test: IC50 and MIC determination, CellTiter-Glo, strain I1; type: cell-based, Madurella mycetomatis
[4] = test system: M. mycetomatis strain mm55; test: IC50 and MIC determination, CellTiter-Glo, strain mm55; type: cell-based, Madurella mycetomatis; settings: for IC50: concentration inhibiting 50% of fungal hyphae growth; for MIC: concentration with complete growth inhibition
[5] = test system: M. mycetomatis-infected G. mellonella larvae; settings: M. mycetomatis-infected G. mellonella larvae; cited from earlier work
M. mycetomatis [6] = test system: M. mycetomatis; design: method as in PMID 35398930, PMID 15793113, PMID 36005544, PMID 34181477, PMID 22964246; settings: against M. mycetomatis; cited from earlier work
M. mycetomatis [7] = test: In vitro susceptibility, averages over M. mycetomatis isolates (average metabolic activity at 2 µM, mean MIC); type: cell-based, Madurella mycetomatis; settings: for Average metabolic activity at 2 µM (%): 4 days at 37°C, CellTiter-Glo, average of 3 isolates, 20% or below = inhibition
[8] = 20 µL of 20 µM at 4, 28 and 52 h post infection, 10 days

Compound: OCCCNc1cc(-c2ccnc(Nc3cccc(Cl)c3)n2)ccn1 [cgp60474]
- Survival of M. mycetomatis-infected larvae versus PBS [1, 8]: No prolonged survival
- IC50 (M. mycetomatis strain P1; Madurella mycetomatis, P1): 0.64 µM
- MIC (M. mycetomatis strain P1; Madurella mycetomatis, P1): 1 µM (≈ 0.356 µg/mL)
- Toxicity in G. mellonella larvae at 20 µM [2]: not toxic
- activity at 2 µM (M. mycetomatis [3]): 7.4%
- IC50 (M. mycetomatis strain I1; Madurella mycetomatis, I1): 0.81 µM
- MIC (M. mycetomatis strain I1; Madurella mycetomatis, I1): 1 µM (≈ 0.356 µg/mL)
- IC50 ([4]; Madurella mycetomatis): 1.55 µM
- MIC ([4]; Madurella mycetomatis): 2 µM (≈ 0.712 µg/mL)

Compound: C[C@@H]1[C@H](O)[C@@H](C)/C=C/C=C/C=C/C=C/C=C/C=C/C=C/[C@H](O[C@@H]2O[C@H](C)[C@@H](O)[C@H](N)[C@@H]2O)C[C@@H]2O[C@](O)(C[C@@H](O)C[C@@H](O)[C@H](O)CC[C@@H](O)C[C@@H](O)CC(=O)O[C@H]1C)C[C@H](O)[C@H]2C(=O)O [amphotericin B]
- Survival of M. mycetomatis-infected larvae versus PBS ([1]; 1 mg/kg amphotericin B, infected treated control): prolonged the survival

Compound: Clc1ccc(COC(Cn2ccnc2)c2ccc(Cl)cc2Cl)c(Cl)c1 (centres unmarked) [Miconazole nitrate]
- MIC (M. mycetomatis strain P1; Madurella mycetomatis, P1): 0.5 µM
- activity at 2 µM (M. mycetomatis [3]): 1%
- MIC (M. mycetomatis strain I1; Madurella mycetomatis, I1): 0.06 µM
- MIC ([4]; Madurella mycetomatis): 1 µM

Compound: C[C@@H](c1ncncc1F)[C@](O)(Cn1cncn1)c1ccc(F)cc1F [Voriconazole]
- IC50 (M. mycetomatis strain P1; Madurella mycetomatis, P1): 0.33 µM
- MIC (M. mycetomatis strain P1; Madurella mycetomatis, P1): 0.5 µM (≈ 0.175 µg/mL)
- activity at 2 µM (M. mycetomatis [3]): 1.1%
- larval survival [5]: No prolonged larval survival
- IC50 (M. mycetomatis strain I1; Madurella mycetomatis, I1): 0.2 µM
- MIC (M. mycetomatis strain I1; Madurella mycetomatis, I1): 0.25 µM (≈ 0.0873 µg/mL)
- MIC50 (M. mycetomatis [6]): 0.125 µg/mL (≈ 0.358 µM)
- IC50 ([4]; Madurella mycetomatis): 0.63 µM
- MIC ([4]; Madurella mycetomatis): 1 µM (≈ 0.349 µg/mL)

Compound: CC(=O)[O][Hg][c]1ccccc1 [Phenylmercuric acetate]
- IC50 (M. mycetomatis strain P1; strain P1): < 0.03 µM
- MIC (M. mycetomatis strain P1; strain P1): 0.03 µM
- Toxicity in G. mellonella larvae at concentrations as low as 0.5 µM [2]: toxic
- IC50 (M. mycetomatis strain I1; strain I1): 0.45 µM
- MIC (M. mycetomatis strain I1; strain I1): 0.50 µM
- Average metabolic activity at 2 µM (%) (M. mycetomatis [7]): 2.0%
- IC50 [4]: 1.12 µM
- MIC [4]: 2.00 µM

Compound: C[C@@H](c1nc(-c2ccc(C#N)cc2)cs1)[C@](O)(Cn1cncn1)c1cc(F)ccc1F [Isavuconazole]
- IC50 (M. mycetomatis strain P1; Madurella mycetomatis, P1): < 0.03 µM
- MIC (M. mycetomatis strain P1; Madurella mycetomatis, P1): 0.03 µM (≈ 0.0131 µg/mL)
- activity at 2 µM (M. mycetomatis [3]): 2.1%
- IC50 (M. mycetomatis strain I1; Madurella mycetomatis, I1): 0.05 µM
- MIC (M. mycetomatis strain I1; Madurella mycetomatis, I1): 0.06 µM (≈ 0.0262 µg/mL)
- IC50 ([4]; Madurella mycetomatis): 0.43 µM
- MIC ([4]; Madurella mycetomatis): 1 µM (≈ 0.437 µg/mL)

Compound: C=CCOC(Cn1ccnc1)c1ccc(Cl)cc1Cl (centres unmarked) [Enilconazole sulphate]
- IC50 (M. mycetomatis strain P1; Madurella mycetomatis, P1): 0.56 µM
- MIC (M. mycetomatis strain P1; Madurella mycetomatis, P1): 1 µM
- activity at 2 µM (M. mycetomatis [3]): 1.3%
- IC50 (M. mycetomatis strain I1; Madurella mycetomatis, I1): 0.42 µM
- MIC (M. mycetomatis strain I1; Madurella mycetomatis, I1): 0.5 µM
- IC50 ([4]; Madurella mycetomatis): 1.25 µM
- MIC ([4]; Madurella mycetomatis): 2 µM

Compound: Bleomycin
- IC50 (M. mycetomatis strain P1; strain P1): < 0.03 µM
- MIC (M. mycetomatis strain P1; strain P1): 0.03 µM
- Toxicity in G. mellonella larvae at concentrations as low as 0.5 µM [2]: toxic
- IC50 (M. mycetomatis strain I1; strain I1): 0.2 µM
- MIC (M. mycetomatis strain I1; strain I1): 0.25 µM
- Average metabolic activity at 2 µM (%) (M. mycetomatis [7]): 1.6%
- IC50 [4]: 0.21 µM
- MIC [4]: 0.50 µM

Compound: N#C/C(=C1/SC[C@@H](c2ccc(Cl)cc2Cl)S1)n1ccnc1 [Luliconazole]
- IC50 (M. mycetomatis strain P1; Madurella mycetomatis, P1): < 0.03 µM
- MIC (M. mycetomatis strain P1; Madurella mycetomatis, P1): 0.03 µM (≈ 0.0106 µg/mL)
- activity at 2 µM (M. mycetomatis [3]): 1%
- IC50 (M. mycetomatis strain I1; Madurella mycetomatis, I1): < 0.03 µM
- MIC (M. mycetomatis strain I1; Madurella mycetomatis, I1): 0.03 µM (≈ 0.0106 µg/mL)
- MIC50 (M. mycetomatis [6]): 0.001 µg/mL (≈ 0.00282 µM)
- MIC (M. mycetomatis [7]; Madurella mycetomatis, mean/average over strains MM55, P1 and I1): < 0.03 µM
- IC50 ([4]; Madurella mycetomatis): < 0.03 µM
- MIC ([4]; Madurella mycetomatis): 0.03 µM (≈ 0.0106 µg/mL)

Compound: Cc1ccc2c(Br)cc(Br)c(OC(=O)c3ccccc3)c2n1 [Broxaldine]
- Survival of M. mycetomatis-infected larvae versus PBS [1, 8]: No prolonged survival
- IC50 (M. mycetomatis strain P1; Madurella mycetomatis, P1): 0.63 µM
- MIC (M. mycetomatis strain P1; Madurella mycetomatis, P1): 1 µM (≈ 0.421 µg/mL)
- Toxicity in G. mellonella larvae at 20 µM [2]: not toxic
- activity at 2 µM (M. mycetomatis [3]): 4.8%
- IC50 (M. mycetomatis strain I1; Madurella mycetomatis, I1): 1.31 µM
- MIC (M. mycetomatis strain I1; Madurella mycetomatis, I1): 2 µM (≈ 0.842 µg/mL)
- IC50 ([4]; Madurella mycetomatis): 1.25 µM
- MIC ([4]; Madurella mycetomatis): 2 µM (≈ 0.842 µg/mL)
